In patent publication US7179828B2, “Biologically active neopeltolide compounds” (priority 2003, dated 2007) one finds IC50, zone of inhibition and MIC data, which are given here for 3 compounds.

Each structure is given as a SMILES string. In brackets after ≈: the same amount, converted by molar mass. Where two headings read alike, the source gives them in different places.

Common to all, as to format: cell-based
The subject of experiment [1] is A549 human lung adenocarcinoma. Description: In vitro proliferation of A549 tumor cells (MTT). As to conditions: 72-h exposure. The method, then:
(§1) Neopeltolide was analyzed as to its effect on the proliferation of A549 human lung adenocarcinoma, NCI-ADR-RES (Formerly MCF-7/ADR) human breast cancer and P388 murine leukemia cell lines. P388 cells were obtained from Dr. R. Camalier, National Cancer Institute, Bethesda, Md., and A549 and NCI-ADR-RES cells were obtained from American Type Culture Collection, Rockville, Md.
(§2) All cell lines are maintained in Roswell Park Memorial Institute (RPMI) medium 1640 supplemented with 100 U/mL penicillin 100 μg/ml streptomycin, 60 μg/ml L-glutamine, 18 mM HEPES, 0.05 mg/mL gentamycin and 10% fetal bovine serum. […]
(§3) A volume of 75 μl of warm growth media containing 5 mg/ml MTT is added to each well, cultures returned to the incubator, and left undisturbed for 3 hours. To spectrophotometrically quantitate formation of reduced formazan, plates are centrifuged (900×g, 5 minutes), culture fluids removed by aspiration, and 200 μl of acidified isopropanol (2 ml concentrated HC/liter isopropanol) added per well. The absorbance of the resulting solutions is measured at 570 nm with a plate reader (Spectra II Tecan Laboratories). […]
(§4) The two standard drug controls (indicated above) are included in each assay to monitor the drug sensitivity of each of the cell lines and IC50 values are determined for each drug-cell combination.

The test system of experiment [2] is NCI-ADR-RES (Formerly MCF-7/ADR) human breast cancer. The experiment in a line: In vitro proliferation of NCI-ADR-RES tumor cells (MTT). As to conditions: 72-h exposure, read-out: NCIADR-RES IC50. Here is the method: as §1, §2, §3, §4
The test system of experiment [3] is Candida albicans (American Type Culture Collection strain 44506). The experiment in a line: Agar (disk) diffusion assay. Here is the method: (§5) The antifungal activity of neopeltolide against Candida albicans (American Type Culture Collection strain 44506) was determined through the use of both agar diffusion and broth dilution assays.
Agar diffusion assays were performed using Sabouraud Dextrose agar plates seeded with the test microbe at 10^5/ml. Disks (6.35 mm, Schliecher and Schuell) were impregnated with 25 μg of neopeltolide, allowed to dry and then placed on the agar surface. After incubation at 37° C. for 24 hours the zones of growth inhibition were determined. A control disk containing 100 IU nystatin was run on the same plate as the neopeltolide: the zone of inhibition was 28 mm.

Experiment [4] shares this test system. The experiment in a line: Broth dilution assay (MIC). The note with it: read-out: Minimum Inhibitory Concentration (MIC). The method, then: as §5
Broth dilution assays were performed as standard 96-well microtiter assays in a total volume of 50 μl with a seeding density of 10^3 cells/ml. The concentration range for neopeltolide ranged from 5 to 0.4 μg/ml as two-fold dilutions.
For orientation: Broth dilution looks for growth in wells or tubes with falling amounts of substance.

The next experiment concerns P388 murine leukemia. Description: In vitro proliferation of P388 tumor cells (MTT). The note with it: Mus musculus, 48-hr exposure. The method, then: as §1, §2, §3, §4

In general, IC50 refers to the concentration that inhibits the measured activity by half. In the case of `CCCC1CC(OC)CC(C)CC2CC(OC(=O)/C=C\CCc3coc(/C=C\CNC(=O)OC)n3)CC(CC(=O)O1)O2` (stereo not shown) [Neopeltolide (I), Neopeltolide], the figures for the IC50 (in experiment [1]; in experiment [2]; in the experiment on P388 murine leukemia) were 1.17 nM, 5.1 nM and 0.56 nM, respectively. Further, the zone of inhibition at 25 µg/disc in experiment [3] (Candida albicans, 24 h, read-out: growth inhibitory zone) came to 17 mm. In addition, in experiment [4] (24 h), the MIC was determined as 0.625 µg/mL (≈ 1.06 µM).

As to `Nc1nc(=O)[nH]cc1F` [5-fluorocytosine, reference compound], the MIC in experiment [4] (C. albicans, 96-well broth dilution, 37° C., 24 hours, complete inhibition of growth) stood at 0.62 µg/mL (≈ 4.8 µM).

For the compound `C[C@@H]1[C@H](O)[C@@H](C)/C=C/C=C/CC/C=C/C=C/C=C/C=C/C(O[C@H]2O[C@H](C)[C@@H](O)[C@H](N)[C@@H]2O)CC2O[C@](O)(CC(O)C(O)CCC(O)CC(O)CC(O)CC(=O)O[C@H]1C)CC(O)C2C(=O)O` (stereo partly shown) [nystatin, reference compound], the zone of inhibition in experiment [3] (control disk containing 100 IU, C. albicans, 37° C., 24 hours) was 28 mm.
